Legend:
Experiment in all cases: Example B2 herbicidal action, post-emergence, pots in glasshouse, damage score 0-10
Assay type in all cases: in vivo
Conditions in all cases: application post-emergence, rate 1000 g/ha, evaluated after 13 days
Amaranthus retroflexus = test system: Amaranthus retroflexus
Protocol: (§1) Seeds of a variety of test species were sown in standard soil in pots. After 8 days cultivation (post-emergence) under controlled conditions in a glasshouse (at 24/16° C., day/night; 14 hours light; 65% humidity), the plants were sprayed with an aqueous spray solution derived from the formulation of the technical active ingredient in acetone/water (50:50) solution containing 0.5% Tween 20 (polyoxyethelyene sorbitan monolaurate, CAS RN 9005-64-5). The test plants were then grown in a glasshouse under controlled conditions in a glasshouse (at 24/16° C., day/night; 14 hours light; 65% humidity) and watered twice daily. After 13 days, the test was evaluated (10=total damage to plant; 0=no damage to plant).

Echinochloa crus-galli = test system: Echinochloa crus-galli
Protocol: as §1

Ipomea hederaceae = test system: Ipomea hederaceae
Protocol: as §1

Setaria faberi = test system: Setaria faberi
Protocol: as §1

Solanum nigrum = test system: Solanum nigrum
Protocol: as §1

Compound | AMARE damage score (10=total damage to plant; 0=no damage to plant) (Amaranthus retroflexus) | ECHCG damage score (10=total damage to plant; 0=no damage to plant) (Echinochloa crus-galli) | IPOHE damage score (10=total damage to plant; 0=no damage to plant) (Ipomea hederaceae) | SETFA damage score (10=total damage to plant; 0=no damage to plant) (Setaria faberi) | SOLNI damage score (10=total damage to plant; 0=no damage to plant) (Solanum nigrum)
CC(C)C(=O)OC1=C(c2c(Cl)ccc(Cl)c2Cl)S(=O)(=O)N(CC(F)F)c2nccnc21 [Compound C38] | 9 | 9 | 10 | 9 | 10
Cc1ccc(C(F)(F)F)c(C2=C(OC(=O)C(C)(C)C)c3nccnc3N(CC(F)F)S2(=O)=O)c1 [Compound C148] | 7 | 3 | 8 | 2 | 9
CC(C)C(=O)OC1=C(c2c(Br)cccc2Br)S(=O)(=O)N(CC(F)F)c2nccnc21 [Compound C49] | 9 | 8 | 9 | 6 | 9
CC(C)C(=O)OC1=C(c2ccc(Cl)cc2Cl)S(=O)(=O)N(CC(Cl)Cl)c2nccnc21 [Compound C116] | 10 | 2 | 6 | 3 | 10
CCSC(=O)OC1=C(c2cc(F)c(Cl)cc2Cl)S(=O)(=O)N(CC(F)F)c2nccnc21 [Compound C88] | 9 | 6 | 9 | 4 | 9
CCSC(=O)OC1=C(c2cc(C(F)(F)F)ccc2Cl)S(=O)(=O)N(CC)c2nccnc21 [Compound C87] | 7 | 5 | 9 | 0 | 10
CCSC(=O)OC1=C(c2c(Cl)ccc(Cl)c2Cl)S(=O)(=O)N(CC)c2nccnc21 [Compound C71] | 8 | 6 | 10 | 1 | 9
CCSC(=O)OC1=C(c2c(F)ccc(Cl)c2Cl)S(=O)(=O)N(CC(F)F)c2nccnc21 [Compound C32] | 8 | 7 | 9 | 1 | 8
O=S1(=O)C(c2c(Cl)ccc(Cl)c2Cl)=C(O)c2nccnc2N1CC(F)F [Compound D17] | 10 | 9 | 10 | 9 | 10
COc1ccc(Cl)c(C2=C(OC(=O)C(C)C)c3nccnc3N(CC(F)F)S2(=O)=O)c1F [Compound C143] | 1 | 4 | 8 | 0 | 10
CCSC(=O)OC1=C(c2cccc(Cl)c2Cl)S(=O)(=O)N(CC)c2nccnc21 [Compound C99] | 3 | 2 | 3 | 1 | 8
CN1c2nccnc2C(OC(=O)C(C)(C)C)=C(c2c(Cl)ccc(Cl)c2Cl)S1(=O)=O [Compound C93] | 0 | 3 | 6 | 0 | 6
O=S1(=O)C(c2cc(I)ccc2Cl)=C(O)c2nccnc2N1CC(F)F [Compound D29] | 5 | 2 | 7 | 3 | 7
CC#CCN1c2nccnc2C(OC(=O)C(C)(C)C)=C(c2c(Cl)ccc(Cl)c2C(F)(F)F)S1(=O)=O [Compound C96] | 0 | 1 | 4 | 0 | 7
CCN1c2nccnc2C(O)=C(c2ccccc2[N+](=O)[O-])S1(=O)=O [Compound D34] | 0 | 0 | 2 | 1 | 1
CCN1c2nccnc2C(O)=C(c2c(F)ccc(Cl)c2Cl)S1(=O)=O [Compound D4] | 8 | 4 | 10 | 2 | 10
O=S1(=O)C(c2c(F)ccc(Cl)c2Cl)=C(O)c2nccnc2N1CC(F)F [Compound D9, 3-(2,3-dichloro-6-fluoro-phenyl)-1-(2,2-difluoro-ethyl)-2,2-dioxo-1,2-dihydro-2-λ-6-thia-1,5,8-triaza-naphthalen-4-ol] | 9 | 4 | 10 | 2 | 10
CCSC(=O)OC1=C(c2cc(C(F)(F)F)ccc2Cl)S(=O)(=O)N(C)c2nccnc21 [Compound C89] | 7 | 6 | 9 | 1 | 10
O=S1(=O)C(c2ccc(C(F)(F)F)cc2C(F)(F)F)=C(O)c2nccnc2N1CC(F)F [Compound D55] | 10 | 5 | 10 | 4 | 10
CCSC(=O)OC1=C(c2cc(Cl)ccc2C(F)(F)F)S(=O)(=O)N(CC(F)F)c2nccnc21 [Compound C112] | 10 | 6 | 9 | 6 | 10
CS(=O)(=O)OC1=C(c2cc(C(F)(F)F)ccc2Cl)S(=O)(=O)N(CC(F)F)c2nccnc21 [Compound C83, methanesulfonic acid 3-(2-chloro-5-trifluoromethyl-phenyl)-1-(2,2-difluoro-ethyl)-2,2-dioxo-1,2-dihydro-2-λ-6-thia-1,5,8-triaza-naphthalen-4-yl ester] | 9 | 7 | 10 | 1 | 10

From patent publication US8133849B2, “Herbicidal compounds” (Syngenta Limited, priority 2007, dated 2012)
